Measurements published in ChEMBL document CHEMBL1139906, “Structure function analysis of benzalacetone synthase from Rheum palmatum” (Bioorg Med Chem Lett, 2007).

B1: Polyketide synthase BAS (Rheum palmatum), Q94FV7 (protein)
chain: MATEEMKKLATVMAIGTANPPNCYYQADFPDFYFRVTNSDHLINLKQKFKRLCENSRIEKRYLHVTEEILKENPNIAAYEATSLNVRHKMQVKGVAELGKEAALKAIKEWGQPKSKITHLIVCCLAGVDMPGADYQLTKLLDLDPSVKRFMFYHLGCYAGGTVLRLAKDIAENNKGARVLIVCSEMTTTCFRGPSETHLDSMIGQAILGDGAAAVIVGADPDLTVERPIFELVSTAQTIVPESHGAIEGHLLESGLSFHLYKTVPTLISNNIKTCLSDAFTPLNISDWNSLFWIAHPGGPAILDQVTAKVGLEKEKLKVTRQVLKDYGNMSSATVFFIMDEMRKKSLENGQATTGEGLEWGVLFGFGPGITVETVVLRSVPVIS

What was measured:
Rheum palmatum = test: Activity of Rheum palmatum benzalacetone synthase S338V mutant
[1] = substrate: CC(C)(COP(=O)(O)OP(=O)(O)OC[C@H]1O[C@@H](n2cnc3c(N)ncnc32)[C@H](O)[C@@H]1OP(=O)(O)O)[C@@H](O)C(=O)NCCC(=O)NCCSC(=O)/C=C/c1ccc(O)cc1; test: Activity of Rheum palmatum benzalacetone synthase

| Molecule | Km (Rheum palmatum) [µM] | kcat (Rheum palmatum) [s⁻¹] | Km [1] [µM] | kcat [1] [s⁻¹] |
| --- | --- | --- | --- | --- |
| CC(C)(COP(=O)(O)OP(=O)(O)OC[C@H]1O[C@@H](n2cnc3c(N)ncnc32)[C@H](O)[C@@H]1OP(=O)(O)O)[C@@H](O)C(=O)NCCC(=O)NCCSC(=O)/C=C/c1ccc(O)cc1 | 9.4 | 0.053 |  |  |
| B1 |  |  | 10 | 0.0298 |
